Results taken from patent US4221909A, “P-Acetamidobenzoic acid salts of 9-(hydroxyalkyl) purines” (Sloan-Kettering Institute for Cancer Research, priority 1978, dated 1980).

How the values were obtained:
Type in all cases: cell-based
[1] = tested on: Influenza A USSR/90(H1 N1); test: Anti-Influenza Activity (Hemadsorption Assay), Influenza A USSR/90
Method: Upon infection of a monolayer of tissue culture cells by influenza virus, the cell surface is altered so that guinea pig erythrocytes can be adsorbed to the cell surface. The number of foci of adsorbed cells (hemadsorption foci forming units HAFFU) is a quantitative measure of infectivity. The method is as follows.
The monolayers were subcultured in the following manner: The medium was poured off, and the monolayer washed two times with approximately 50 ml per wash of calcium and magnesium free phosphate buffered saline (PBS), (GIBCO #419) at a pH of 7.2. One ml of trypsin-EDTA solution (GIBCO #530L) containing 0.5 g trypsin (1:250) and 2.0 g EDTA/liter of Modified Puck's Saline A was added at 37° C. to each flask and dispersed over the monolayer with gentle shaking. The flasks were then placed in an incubator at 37° C. for approximately 3-5 minutes depending on the time required to dislodge the cells. Occasional shaking was required. Ten ml of planting medium was added to each flask and the cells dispersed by aspirating and expelling the suspension from the pipette. The contents of a series of flasks were pooled and the cells in the suspension were diluted with planting medium to 7-8.5×10^4 cells/ml. The planting medium consisted of the following composition: Minimum Essential Medium Eagles (MEM) with Earle's salts and HEPES buffer (GIBCO #236) supplemented by adding the following substances as specified to 87 ml of MEM:
The following day the medium was removed and replaced with fresh planting medium. The monolayers were used for experimentation when they reached a condition in which they were almost confluent (approximately 3-4 days).
When the Linbro tray HeLa cell cultures were ready for experimentation (see cells), the medium was decanted and 1 ml of maintenance medium (MEM with FCS reduced to 3%) containing the compound being tested at a given concentration was added to 4 replicate cultures within a tray.
A series of different drug concentrations ranging from 2.3 to 150 μg/ml were used. Maintenance medium alone was used for control cultures. After the administration of drug and control medium, 0.1 ml of the diluted viral suspension was added to experimental groups and infected control cultures. Saline alone was added to non-infected control cultures. The Linbro trays were then incubated at 37° C. for 18 hours, after which media in all groups was aspirated. Each culture was washed once with PBS. The saline was aspirated and 0.5 ml of a 0.4% v/v guinea pig red blood cell suspension in PBS was added to each culture well. The cultures remained at room temperature for 30 minutes after which the medium was decanted and culture washed […] with PBS to remove all but the specifically bound red cells. After the third wash, maintenance medium was added to all cultures.
A Howard Micrometer eyepiece (C8385) was inserted within the ocular of a Nikon inverted phase contrast microscope. Each culture was scanned with a 4× low paper objective and direct counts of hemadsorbed red cells were counted using the eyepiece grid as a field marker. Partial or complete fields were counted per experimental group depending on the resulting number and density of hemadsorbed cells in the infected control cultures. Magnification of 60× or 150× were chosen to obtain the best conditions for enumerating the hemadsorbed cells. Field factors were calculated for counting hemadsorption at 60× and 150×. At 60× magnification, total field count was calculated using a multiplication factor of 55.5. At 150× magnification the multiplication factor was 273. The multiplication factors of 55.5 and 273 represent the total number of fields at 60× and 150× magnifications, respectively. The number of fields counted ranged from 3 to 5 per well with 3 to 4 wells per treatment group employed (see raw data tables in results section for number of fields examined). Means and standard errors were calculated and the data was evaluated using student's t-test analysis.

Mouse spleen cells = test: Mitogen Induced (Con A) Mouse Lymphocyte Proliferation
Description: (§1) The following three assay procedures are used to evaluate the ability of the test substances to modulate the activity of several classes of cells in the immune system. In these systems it is possible to identify both immunopotentiating activity (evidence by an enhancement of the parameter examined) as well as immunosuppressant activity (evidenced by an inhibition of the parameter examined).
1. Mitogen--Induced Mouse Spleen Cell Assay--Mouse spleen cells contain a population of both B and T lymphocytes which can be stimulated by a number of foreign substances (e.g., plant mitogens such as Con A) to proliferate. This enhanced proliferation is an indication of enhanced cell mediated immunity. The method below describes the system used to evaluate test substances as immunopotentiators.
Concanavalin A (Calbiochem, La Jolla, Calif.), Lot #210073, lyophilized in NaCl, was prepared first as a 1% solution and diluted as a 2× concentration for each dilution (0.5, 1.0, 2.5 μg/ml).
Six to eight week old male Balb/c and C3 H inbred mice were obtained from the following sources: Flow Research Animals, Inc., Dublin, Va.; Charles River Breeding Laboratories, Wilmington, Mass.; Laboratory Supply Company, Indianapolis, Ind.; and Lionel Strong Foundation, San Diego, Calif.
Three to five mice were sacrificed by cervical dislocation and the spleens aseptically removed. Pooled spleens were minced and teased with sterile forceps; then strained through a double layer of nylon mesh. The cell suspension was washed once with 15 ml of RPMI 1640 supplemented with 5% fetal calf serum and antibiotics. Cells were cultured at a concentration of 10^6 cells/0.1 ml/well in micro-plates. Cultures were incubated in the presence or absence of mitogen in a humidified atmosphere containing 5% CO2 for 48 hours. The test compound was added to cultures at various concentrations concommitant with mitogen.
Proliferation was assayed by the degree of incorporation of 1.0 μCi of [^3 H] thymidine over an 18 hour incubation period. Cultures were harvested by a MASH unit (Otto Hiller Co., Madison, Wisconsin) and thymidine incorporation was assayed by liquid scintillation spectrometry. Cultures were performed in triplicate and data are expressed as means plus or minus the strandard error of the experimental means. Drug stimulation indices over control values were also calculated and portrayed graphically.

[2] = tested on: human peripheral blood lymphocytes; test: Mitogen Induced (PHA) Human Lymphocyte Proliferation
influenza virus = test: Anti-influenza activity (summary)
[3] = tested on: guinea pig peritoneal macrophages; test: Lymphokine Induced (MMF) Guinea Pig Macrophage Proliferation
Description: as §1
3. The macrophage represents a subpopulation of white blood cells which is an important component of the immune system in control of both cellular and humoral immunity. The assay system described below evaluates the substances studied as potentiators of macrophage function.
Phytohemagglutinin(PHA) (HA-17) was purchased from Burroughs Wellcome. A preparation containing Macrophage Mitogen Factor (MMF) and Macrophage Activating Factor (MAF) was prepared from antigen-stimulated immune lymph node lymphocytes (guinea pig) as previously described by Hadden et al, Nature 257, 483-485 (1975). […] The active fraction was employed in both the proliferation and activation assays.
Ficoll-hypaque purified human peripheral blood lymphocytes were prepared and PHA-induced lymphocyte proliferation was assayed by the incorporation of tritiated thymidine as described in Hadden et al, Cell. Immunol. 20, 98-103 (1975). Each compound was analyzed in the presence of suboptimal, optimal and supraoptimal concentrations of PHA (0.001, 0.01, 0.1 units/ml respectively). Paraffin oil-induced guinea pig peritoneal macrophages were prepared and incubated as monolayer culture (>98% pure macrophages). Lymphokine (MMF)-induced proliferation was assayed by the incorporation of triturated thymidine at 3 and 5 days of culture as described, Hadden et al, Nature 257, 483-485 (1975). Lymphokine (MAF)-induced macrophage activation to kill Listeria monocytogenes following 5 days of culture in the presence or absence of MAF was performed during a 6 hour period as described in Hadden and England, Immunopharmacology, pages 87-100 (Plenum Press, 1977). Phagocytosis was quantitated during a 20-minute exposure to Listeria monocytogenes by counting the number of macrophages containing bacteria and the number of bacteria per phagocytic cell on gram stained monolayers in Labtek chambers. Intracellular killing of bacteria was evaluated by counting the number of cells containing bacteria and the number of bacteria/cell 6 hours after the initial 20 minute exposure. Parallel experiments in which macrophages were lysed and intracellular bacteria were cultured confirm the validity of bacterial activity determined by this manner in this sytem. The drugs were employed in each of the three systems over serial log concentration range in triplicate in the presence and absence of mitogen or lymphokine. Each type of experiment was performed at least three times. Previous experiments indicate a parallelism of response to pharmacologic modulation in the proliferation and activation assays.

Row | SMILES | Maximum Percent Change, Mitogen Induced (Con A) Mouse Lymph. Prolif. (Mouse spleen cells; 1.0-10) | Maximum Percent Change, Mitogen Induced (Con A) Mouse Lymph. Prolif. (Mouse spleen cells; .01-1.0) | Maximum Percent Change, Mitogen Induced (PHA) Human Lymph. Prolif. ([2]; 1.0-10) | Maximum Percent Change, Mitogen Induced (PHA) Human Lymph. Prolif. ([2]; 10-100) [%] | Maximum Percent Change, Mitogen Induced (PHA) Human Lymph. Prolif. ([2]; .01-1.0) [%] | Maximum Percent Change, Mitogen Induced (Con A) Mouse Lymph. Prolif. (Mouse spleen cells; 10-100) | DIP.PAcBA potentiation of Anti-Influenza activity (influenza virus) | further results
1 | CC(CO)n1cnc2c(Cl)ncnc21 (centres unmarked) [NPT 15423, 9-(1-HYDROXY-2-PROPANE)-6-CHLOROPURINE] | – | – | – | – | – | – | – | inhibition ([1]; Influenza A virus, Conc. 10-100 μg/ml, read-out: % Inhibition of Hemadsorption Foci): 13%
2 | O=c1[nH]cnc2c1ncn2CCO [NPT 15425, 9-HYDROXYETHYL HYPOXANTHINE] | 0% | 11% | 0% | 0 | 100 | – | – | –
3 | CC(O)Cn1cnc2c(N)ncnc21 (centres unmarked) [NPT 15431, 9-(2-HYDROXY-1-PROPYL)ADENINE] | -27% | -15% | 0% | 0 | 0 | -47% | – | % Inhibition of Hemadsorption Foci ([1]; Conc. 10-100 μg/ml, listed as 15431): 22%; % Inhibition of Hemadsorption Foci ([1]; Conc. >100 μg/ml, listed as 15431): 0%
4 | CC(O)Cn1cnc2c(N)ncnc21 (centres unmarked) [NPT 15432] | – | – | – | – | – | – | Yes | % Inhibition of Hemadsorption Foci ([1]; Conc. 10-100 μg/ml, listed as 15432): 48%; % Inhibition of Hemadsorption Foci ([1]; Conc. >100 μg/ml, listed as 15432): 62%
5 | CC(CO)n1cnc2c(N)ncnc21 (centres unmarked) [NPT 15433, 9-(1-HYDROXY-2-PROPYL)ADENINE] | -23% | +15% | 0% | -50 | 53 | -65% | – | % Inhibition of Hemadsorption Foci ([1]; Conc. >100 μg/ml, listed as 15433): 0%
6 | CC(CO)n1cnc2c(N)ncnc21 (centres unmarked) [NPT 15434] | – | – | – | – | – | – | Yes | % Inhibition of Hemadsorption Foci ([1]; Conc. 10-100 μg/ml): 41%; % Inhibition of Hemadsorption Foci ([1]; Conc. >100 μg/ml, listed as 15434): 62%
7 | OCCn1cnc2c(S)ncnc21 [NPT 15437] | – | – | – | – | – | – | Yes | % Inhibition of Hemadsorption Foci ([1]; Conc. 10-100 μg/ml): 65%; % Inhibition of Hemadsorption Foci ([1]; Conc. >100 μg/ml, listed as 15437): 65%
8 | CC(CO)n1cnc2c(=O)[nH]cnc21 (centres unmarked) [NPT 15443, 9-(1-HYDROXY-2-PROPYL)HYPOXANTHINE] | +27% | +17% | +13% | 0 | 0 | +27% | – | % Inhibition of Hemadsorption Foci ([1]; Conc. 10-100 μg/ml, listed as 15443): 0%; % Inhibition of Hemadsorption Foci ([1]; Conc. >100 μg/ml, listed as 15443): 0%; Maximum Percent Change, Lymphokine Induced (MMF) Guinea Pig Mac. Prolif. ([3]; 1.0-10): 0%; Maximum Percent Change, Lymphokine Induced (MMF) Guinea Pig Mac. Prolif. ([3]; .01-1.0): +20%
9 | CC(CO)n1cnc2c(=O)[nH]cnc21 (centres unmarked) [NPT 15444] | – | – | – | – | – | – | Yes | % Inhibition of Hemadsorption Foci ([1]; Conc. 10-100 μg/ml, listed as 15444): 44%; % Inhibition of Hemadsorption Foci ([1]; Conc. >100 μg/ml, listed as 15444): 54%
10 | CC(O)Cn1cnc2c(=O)[nH]cnc21 (centres unmarked) [NPT 15446, 9-(2-HYDROXY-1-PROPYL)HYDROXANTHINE] | 12% | 6% | 0% | 0 | 0 | 0% | – | % Inhibition of Hemadsorption Foci ([1]; Conc. 10-100 μg/ml, listed as 15446): 0%; % Inhibition of Hemadsorption Foci ([1]; Conc. <10 μg/ml, listed as 15446): 2%; % Inhibition of Hemadsorption Foci ([1]; Conc. >100 μg/ml, listed as 15446): 0%; Maximum Percent Change, Lymphokine Induced (MMF) Guinea Pig Mac. Prolif. ([3]; 1.0-10): 0%; Maximum Percent Change, Lymphokine Induced (MMF) Guinea Pig Mac. Prolif. ([3]; 10-100): 0%; Maximum Percent Change, Lymphokine Induced (MMF) Guinea Pig Mac. Prolif. ([3]; .01-1.0): 0%
11 | CC(O)Cn1cnc2c(=O)[nH]cnc21 (centres unmarked) [NPT 15447] | – | – | – | – | – | – | Yes | % Inhibition of Hemadsorption Foci ([1]; Conc. 10-100 μg/ml, listed as 15447): 26%; % Inhibition of Hemadsorption Foci ([1]; Conc. <10 μg/ml, listed as 15447): 10%; % Inhibition of Hemadsorption Foci ([1]; Conc. >100 μg/ml, listed as 15447): 34%
12 | CC(=O)Nc1ccc(C(=O)O)cc1.CC(O)CN(C)C [compound 15110, dimethylamino-2-propanol-p-acetamido benzoate, reference compound] | – | – | – | – | – | – | – | % Inhibition of Hemadsorption Foci ([1]; Conc. 10-100 μg/ml): 0%; % Inhibition of Hemadsorption Foci ([1]; Conc. <10 μg/ml): 0%; % Inhibition of Hemadsorption Foci ([1]; Conc. >100 μg/ml): 20%
